The values below come from patent US20050130890A1, “Amyloid beta is a ligand for FPR class receptors” (priority 2001, published 2005).

The target in one test is T1, mouse FPR2 (Mus musculus, UniProt O88536).
T1 construct: expressed in transfected cells; host or cells: HEK 293
T1 sequence (O88536 1-351): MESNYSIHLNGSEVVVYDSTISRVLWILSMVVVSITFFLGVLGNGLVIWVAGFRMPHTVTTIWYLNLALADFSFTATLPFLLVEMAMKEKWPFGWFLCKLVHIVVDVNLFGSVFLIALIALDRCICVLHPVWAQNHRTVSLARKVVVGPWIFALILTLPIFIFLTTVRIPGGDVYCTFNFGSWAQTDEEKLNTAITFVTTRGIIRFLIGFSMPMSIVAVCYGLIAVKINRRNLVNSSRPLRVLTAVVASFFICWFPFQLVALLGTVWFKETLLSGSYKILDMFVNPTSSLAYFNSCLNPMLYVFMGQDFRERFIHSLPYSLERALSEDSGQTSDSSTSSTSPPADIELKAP
The test is described as follows: Calcium flux in FPR2-transfected HEK 293 cells. The format is cell-based. To be noted: 250 ng/ml pertussis toxin for 4 h. The source says: Cell Lines. Construction of human embryonic kidney (HEK) 293 cell lines expressing human formylpeptide receptor (FPR), human formylpeptide receptor-like 1 receptor (FPRL1R), mouse FPR, mouse FPR2, mouse lipoxin A4 receptor (encoded by Fpr-rs1), a mouse orphan receptor encoded by Fpr-rs3, and human CCR5 and CX3CR1 has been previously described (Hartt J. K. et al. 1999 J Exp Med 190:741-747; Combadiere C. et al. 1996 J Leukocyte Biol 60:147-152; Combadiere C. et al. 1998 J Biol Chem 273:23799-23804; Gao J.-L. et al. 1998 Genomics 51:270-276). Fpr-rs1 and Fpr-rs3 were tested because of their high structural similarity to the known formylpeptide receptors and because they are also expressed in phagocytes (Gao J.-L. et al. 1998 Genomics 51:270-276). […]
Calcium Flux Analysis. […] Data were recorded every 200 ms as the relative ratio of fluorescence emitted at 510 nm following sequential excitation at 340 and 380 nm. The following ligands were evaluated: Aβ (nonfibrillated, human residues 1-42; California Peptide Research; Napa, Calif.), fMet-Leu-Phe (fMLF; Sigma), ATP (Life Technologies), and the chemokines RANTES (regulated upon activation normal T-cell expressed and secreted), SDF-1 (stromal cell-derived factor-1), 1-309, fractalkine, MIP-1α (macrophage inflammatory protein-1α), and KC (Peprotech, Rocky Hill, N.J.). […]

Test [1] deals with N9 murine microglial cell line. As to the kind of experiment: Chemotaxis of N9 microglial cells. Format: cell-based, mouse. To be noted: LPS-activated N9 cells; PTX 100 ng/ml, 37° C., 30 min.

Take pertussis toxin: at mouse FPR2, the “effect of pretreatment on Aβ calcium flux signaling” value was “completely blocked”. Besides, the “effect of pretreatment on chemotaxis to Aβ” value in test [1] is listed as “completely blocked”.
